Reference: patent US20250011311A1, “AMIDO HETEROAROMATIC COMPOUNDS” (AstraZeneca AB, priority 2022, published 2025)

Tests used:
[1] = biological target: over expressed HSD17β9 in HEK293S cells (Homo sapiens (Human), UniProt Q92781); test: In Vitro 17bHSD9 Cell Assay; assay type: cell-based; details: HEK293S cells over expressing HSD17β9; retinol to retinal conversion, 18 h, LC-MS/MS; read-out: 17bHSD9 Cell assay IC50
Method in brief: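 HEK293S cells overexpressing HSD17β9 were plated at 10K cells/well in DMEM + 10% FBS and cultured 18 h. Retinol-to-retinal conversion in media was quantified by LC-MS/MS (MRM) as retinal/(retinal + retinol). IC50 was fitted after normalisation to DMSO and full inhibition by a reference inhibitor.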

[2] = biological target: recombinant 17bHSD13 (N2-K300) (Homo sapiens (Human), UniProt Q7Z5P4); test: In Vitro 17bHSD13 Enzyme Assay; assay type: biochemical; details: 80 nM 17bHSD13, 0.5 mM NAD, 20 μM Estradiol, 2.5 h; estradiol to estrone by LC-MS/MS
Method in brief: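 Human 17bHSD13 (N2-K300, 80 nM) with 0.5 mM NAD, 20 μM estradiol and varied compound in 50 mM Tris-Cl pH 7.4, 5 mM EDTA, 0.01% DDM. Estrone/(estrone+estradiol) ratio read by LC-MS/MS (APCI, positive MRM). Inhibition normalised to DMSO and a known-inhibitor control; IC50 from curve fit.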

human hepatocytes = test: Assay A: Metabolic Stability in Human Hepatocytes; assay type: in vitro ADME; details: cryopreserved human hepatocytes, 10^6 viable cells/mL, 1 μM compound, 37° C.
Method in brief: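 Cryopreserved hepatocytes (10^6 viable cells/mL) at 37° C with 1 μM test compound, sampled 0.5–120 min and quenched in MeCN. Parent measured by LC-MS/MS; CLint (μL/min/10^6 cells) from the slope of ln(parent concentration) vs time.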

Chain of recombinant 17bHSD13 (N2-K300) (Q7Z5P4 2-300): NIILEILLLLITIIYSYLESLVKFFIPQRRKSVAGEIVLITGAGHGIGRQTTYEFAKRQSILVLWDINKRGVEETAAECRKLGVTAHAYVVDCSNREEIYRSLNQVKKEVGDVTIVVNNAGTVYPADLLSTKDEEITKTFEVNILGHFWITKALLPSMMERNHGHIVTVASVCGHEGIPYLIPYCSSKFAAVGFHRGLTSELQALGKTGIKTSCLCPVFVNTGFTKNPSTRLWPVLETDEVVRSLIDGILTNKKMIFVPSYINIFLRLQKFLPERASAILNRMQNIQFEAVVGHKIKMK
Chain of over expressed HSD17β9 in HEK293S cells (Q92781 whole entry): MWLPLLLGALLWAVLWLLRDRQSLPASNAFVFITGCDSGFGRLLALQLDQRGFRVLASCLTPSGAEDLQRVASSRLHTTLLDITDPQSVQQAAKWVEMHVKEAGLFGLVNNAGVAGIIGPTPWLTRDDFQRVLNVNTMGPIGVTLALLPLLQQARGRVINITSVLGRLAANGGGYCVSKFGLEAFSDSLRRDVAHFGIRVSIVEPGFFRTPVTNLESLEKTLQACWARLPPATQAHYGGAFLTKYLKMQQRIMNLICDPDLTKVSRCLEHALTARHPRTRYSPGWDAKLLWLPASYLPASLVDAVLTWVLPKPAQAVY

N#Cc1cccc2c1CCN(C(=O)c1noc(-c3cc(F)c(F)c(O)c3F)n1)C2 [Example 66, 2-(5-(2,4,5-Trifluoro-3-hydroxyphenyl)-1,2,4-oxadiazole-3-carbonyl)-1,2,3,4-tetrahydroisoquinoline-5-carbonitrile]
IC50 [1]: > 50 µM
IC50 [2]: 187 nM
Assay A: Human Heps Met Clint GMean CLint (μl/min/1E6) (human hepatocytes): 12.1 μl/min/1E6

Cn1nnc(-c2cnc(N3CCN(C(=O)c4noc(-c5cc(F)c(F)c(O)c5F)n4)CC3)c(Cl)c2)n1 [Example 67, (4-(3-Chloro-5-(2-methyl-2H-tetrazol-5-yl)pyridin-2-yl)piperazin-1-yl)(5-(2,4,5-trifluoro-3-hydroxyphenyl)-1,2,4-oxadiazol-3-yl)methanone]
IC50 [1]: > 50 µM
IC50 [2]: 79 nM
Assay A: Human Heps Met Clint GMean CLint (μl/min/1E6) (human hepatocytes): 6.6 μl/min/1E6

O=C(c1noc(-c2cc(F)c(F)c(O)c2F)n1)N1CCN(CCOc2ccc(Br)cn2)CC1 [Example 69, (4-(2-((5-Bromopyridin-2-yl)oxy)ethyl)piperazin-1-yl)(5-(2,4,5-trifluoro-3-hydroxyphenyl)-1,2,4-oxadiazol-3-yl)methanone]
IC50 [1]: 21.9 µM
IC50 [2]: 131 nM
Assay A: Human Heps Met Clint GMean CLint (μl/min/1E6) (human hepatocytes): 13.1 μl/min/1E6

O=C(c1noc(-c2cc(F)c(F)c(O)c2F)n1)N1CC(c2ccc(F)cc2)C1 [Example 74, (3-(4-Fluorophenyl)azetidin-1-yl)(5-(2,4,5-trifluoro-3-hydroxyphenyl)-1,2,4-oxadiazol-3-yl)methanone]
IC50 [1]: > 50 µM
IC50 [2]: 89 nM
Assay A: Human Heps Met Clint GMean CLint (μl/min/1E6) (human hepatocytes): 14.4 μl/min/1E6

CCCC1CCN(C(=O)c2noc(-c3cc(F)c(F)c(O)c3F)n2)C1 (stereo not drawn) [Example 76, (3-Propylpyrrolidin-1-yl)(5-(2,4,5-trifluoro-3-hydroxyphenyl)-1,2,4-oxadiazol-3-yl)methanone]
IC50 [1]: 19.6 µM
IC50 [2]: 128 nM
Assay A: Human Heps Met Clint GMean CLint (μl/min/1E6) (human hepatocytes): 18.2 μl/min/1E6

N#Cc1ccc2c(c1)CN(C(=O)c1noc(-c3cc(F)c(F)c(O)c3F)n1)CC2 [Example 86, 2-(5-(2,4,5-Trifluoro-3-hydroxyphenyl)-1,2,4-oxadiazole-3-carbonyl)-1,2,3,4-tetrahydroisoquinoline-7-carbonitrile]
IC50 [1]: 21.1 µM
IC50 [2]: 102 nM
Assay A: Human Heps Met Clint GMean CLint (μl/min/1E6) (human hepatocytes): 12.3 μl/min/1E6

C[C@@H]1CN(C(=O)c2noc(-c3cc(F)c(F)c(O)c3F)n2)C[C@H](C)O1 [Example 87, ((2R,6S)-2,6-Dimethylmorpholino)(5-(2,4,5-trifluoro-3-hydroxyphenyl)-1,2,4-oxadiazol-3-yl)methanone]
IC50 [1]: 36.3 µM
IC50 [2]: 285 nM
Assay A: Human Heps Met Clint GMean CLint (μl/min/1E6) (human hepatocytes): 2.7 μl/min/1E6

C[C@@H]1CN(C(=O)c2noc(-c3cc(F)c(F)c(O)c3F)n2)C[C@@H](C)O1 [Example 88, ((2R,6R)-2,6-Dimethylmorpholino)(5-(2,4,5-trifluoro-3-hydroxyphenyl)-1,2,4-oxadiazol-3-yl)methanone]
IC50 [1]: 41.7 µM
IC50 [2]: 468 nM
Assay A: Human Heps Met Clint GMean CLint (μl/min/1E6) (human hepatocytes): 3.6 μl/min/1E6

C[C@@H]1CN(C(=O)c2cc(-c3cc(F)c(F)c(O)c3F)on2)C[C@H](C)O1 [Example 89, ((2R,6S)-2,6-Dimethylmorpholino)(5-(2,4,5-trifluoro-3-hydroxyphenyl)isoxazol-3-yl)methanone]
IC50 [1]: > 50 µM
IC50 [2]: 168 nM
Assay A: Human Heps Met Clint GMean CLint (μl/min/1E6) (human hepatocytes): 14.6 μl/min/1E6

O=C(c1noc(-c2cc(F)c(F)c(O)c2F)n1)N1CC[C@H](Oc2ccccc2)C1 [Example 93, (S)-(3-Phenoxypyrrolidin-1-yl)(5-(2,4,5-trifluoro-3-hydroxyphenyl)-1,2,4-oxadiazol-3-yl)methanone]
IC50 [1]: 40.3 µM
IC50 [2]: 63 nM
Assay A: Human Heps Met Clint GMean CLint (μl/min/1E6) (human hepatocytes): 15.6 μl/min/1E6

O=C(c1noc(-c2cc(F)c(F)c(O)c2F)n1)N1CCCC(OCc2ccccc2)C1 (stereo not drawn) [Example 94, (3-(Benzyloxy)piperidin-1-yl)(5-(2,4,5-trifluoro-3-hydroxyphenyl)-1,2,4-oxadiazol-3-yl)methanone]
IC50 [1]: > 50 µM
IC50 [2]: 48 nM
Assay A: Human Heps Met Clint GMean CLint (μl/min/1E6) (human hepatocytes): 17.3 μl/min/1E6

O=C(c1noc(-c2cc(F)c(F)c(O)c2F)n1)N1CC[C@H](c2ccc(Cl)cc2)C1 [Example 95, (R)-(3-(4-Chlorophenyl)pyrrolidin-1-yl)(5-(2,4,5-trifluoro-3-hydroxyphenyl)-1,2,4-oxadiazol-3-yl)methanone]
IC50 [1]: 17 µM
IC50 [2]: 53 nM
Assay A: Human Heps Met Clint GMean CLint (μl/min/1E6) (human hepatocytes): 12.9 μl/min/1E6

O=C(c1noc(-c2cc(F)c(F)c(O)c2F)n1)N1CC[C@@H](Oc2ccccc2)C1 [Example 98, (R)-(3-Phenoxypyrrolidin-1-yl)(5-(2,4,5-trifluoro-3-hydroxyphenyl)-1,2,4-oxadiazol-3-yl)methanone]
IC50 [1]: 40.2 µM
IC50 [2]: 63 nM
Assay A: Human Heps Met Clint GMean CLint (μl/min/1E6) (human hepatocytes): 26.7 μl/min/1E6

O=C(Nc1ccnn1C1CCCCC1)c1cc(-c2ccc(F)c(O)c2)on1 [Example 99, N-(1-Cyclohexyl-1H-pyrazol-5-yl)-5-(4-fluoro-3-hydroxyphenyl)isoxazole-3-carboxamide]
IC50 [1]: 38.9 µM
IC50 [2]: 114 nM
Assay A: Human Heps Met Clint GMean CLint (μl/min/1E6) (human hepatocytes): >300 μl/min/1E6

C[C@@H]1CN(C(=O)c2noc(-c3c(F)c(O)c(F)c(F)c3I)n2)C[C@H](C)O1 [Example 108, ((2S,6R)-2,6-Dimethylmorpholino)(5-(2,4,5-trifluoro-3-hydroxy-6-iodophenyl)-1,2,4-oxadiazol-3-yl)methanone]
IC50 [1]: > 50 µM
IC50 [2]: 80 nM
Assay A: Human Heps Met Clint GMean CLint (μl/min/1E6) (human hepatocytes): 8.8 μl/min/1E6

N#Cc1cccc2c1CCN(C(=O)c1noc(-c3c(F)c(O)c(F)c(F)c3I)n1)C2 [Example 109, 2-(5-(2,4,5-Trifluoro-3-hydroxy-6-iodophenyl)-1,2,4-oxadiazole-3-carbonyl)-1,2,3,4-tetrahydroisoquinoline-5-carbonitrile]
IC50 [1]: > 50 µM
IC50 [2]: 46 nM
Assay A: Human Heps Met Clint GMean CLint (μl/min/1E6) (human hepatocytes): 13.0 μl/min/1E6

O=C(c1noc(-c2cc(F)c(F)c(O)c2F)n1)N1CCO[C@H]2CCC[C@H]21 [Example 112, ((4aR,7aS)-Hexahydrocyclopenta[b][1,4]oxazin-4(4aH)-yl)(5-(2,4,5-trifluoro-3-hydroxyphenyl)-1,2,4-oxadiazol-3-yl)methanone]
IC50 [1]: 32.4 µM
IC50 [2]: 197 nM
Assay A: Human Heps Met Clint GMean CLint (μl/min/1E6) (human hepatocytes): 7.4 μl/min/1E6

O=C(c1noc(-c2cc(F)c(F)c(O)c2F)n1)N1CCO[C@@H]2CCC[C@@H]21 [Example 113, ((4aS,7aR)-Hexahydrocyclopenta[b][1,4]oxazin-4(4aH)-yl)(5-(2,4,5-trifluoro-3-hydroxyphenyl)-1,2,4-oxadiazol-3-yl)methanone]
IC50 [1]: > 50 µM
IC50 [2]: 211 nM
Assay A: Human Heps Met Clint GMean CLint (μl/min/1E6) (human hepatocytes): 7.3 μl/min/1E6

O=C(c1noc(-c2cc(F)c(F)c(O)c2F)n1)N1CCO[C@@H]2CCC[C@H]21 [Example 114, ((4aR,7aR)-Hexahydrocyclopenta[b][1,4]oxazin-4(4aH)-yl)(5-(2,4,5-trifluoro-3-hydroxyphenyl)-1,2,4-oxadiazol-3-yl)methanone]
IC50 [1]: 15.8 µM
IC50 [2]: 46 nM
Assay A: Human Heps Met Clint GMean CLint (μl/min/1E6) (human hepatocytes): 6.4 μl/min/1E6

O=C(c1noc(-c2cc(F)c(F)c(O)c2F)n1)N1CCO[C@H]2CCC[C@@H]21 [Example 115, ((4aS,7aS)-Hexahydrocyclopenta[b][1,4]oxazin-4(4aH)-yl)(5-(2,4,5-trifluoro-3-hydroxyphenyl)-1,2,4-oxadiazol-3-yl)methanone]
IC50 [1]: 32.5 µM
IC50 [2]: 154 nM
Assay A: Human Heps Met Clint GMean CLint (μl/min/1E6) (human hepatocytes): 6.2 μl/min/1E6

CC1CN(C(=O)c2noc(-c3cc(F)c(F)c(O)c3F)n2)CC(C)(C)O1 (stereo not drawn) [Example 117, (5-(2,4,5-Trifluoro-3-hydroxyphenyl)-1,2,4-oxadiazol-3-yl)(2,2,6-trimethylmorpholino)methanone]
IC50 [1]: > 50 µM
IC50 [2]: 234 nM
Assay A: Human Heps Met Clint GMean CLint (μl/min/1E6) (human hepatocytes): 4.2 μl/min/1E6

O=C(c1noc(-c2cc(F)c(F)c(O)c2F)n1)N1CCOC2(CC2)C1 [Example 118, (4-Oxa-7-azaspiro[2.5]octan-7-yl)(5-(2,4,5-trifluoro-3-hydroxyphenyl)-1,2,4-oxadiazol-3-yl)methanone]
IC50 [1]: > 50 µM
IC50 [2]: 1080 nM
Assay A: Human Heps Met Clint GMean CLint (μl/min/1E6) (human hepatocytes): 4.6 μl/min/1E6

C[C@@H]1CN(C(=O)c2noc(-c3cc(F)c(F)c(O)c3F)n2)C[C@H](C)N1 [Example 119, ((3R,5S)-3,5-Dimethylpiperazin-1-yl)(5-(2,4,5-trifluoro-3-hydroxyphenyl)-1,2,4-oxadiazol-3-yl)methanone]
IC50 [1]: > 50 µM
IC50 [2]: 1740 nM
Assay A: Human Heps Met Clint GMean CLint (μl/min/1E6) (human hepatocytes): 1.0 μl/min/1E6

C[C@@H]1CN(C(=O)c2cnc(-c3cc(F)c(F)c(O)c3F)s2)C[C@H](C)O1 [Example 120, ((2R,6S)-2,6-Dimethylmorpholino)(2-(2,4,5-trifluoro-3-hydroxyphenyl)thiazol-5-yl)methanone]
IC50 [1]: > 50 µM
IC50 [2]: 44 nM
Assay A: Human Heps Met Clint GMean CLint (μl/min/1E6) (human hepatocytes): 13.3 μl/min/1E6
